The structures appear in SMILES notation.

In the assay the test system is tps2Δ strains. Description: Sensitivity towards antifungals, growth curves in liquid medium in microtiter wells (bioscreen C). It counts as cell-based, Saccharomyces cerevisiae. The following applies: 10^-6 M ketoconazole, 33°C, cells pre-grown to stationary phase, OD 600 nm, after 24 hours. As to the method: Sensitivity towards the antifungals itraconazole and ketoconazole was tested in microtiter wells using a bioscreen C apparatus (Life sciences, Labsystems) and on solid culture media.
Yeast cells were pre-grown in YPglucose medium till stationary phase. The cells were diluted to a initial optical density of 0.05 OD and 300 µl of cell suspension was added to each well of a microtiter plate. Three µl of the correct stock solution of the compound, dissolved in DMSO, were added to each well. For the control reactions, only DMSO was added. The microtiter plate was placed in the bioscreen C apparatus and were incubated at 33°C or 37°C, with medium intensity shaking (30 seconds shaking per minute). The optical density at 600 nm was measured every 30 min.
The effect of the addition of 10^-7 M Itraconazole and 10^-6 Ketoconazole on the growth curve of prototrophic tps2Δ strain PVD32 and wild type strain PVD23 at 33°C is shown in Figures 3 and 4 respectively.
The effect of different concentrations of itraconazole on the growth at 33°C of the diploid wild type strain (PVD190) and the diploid heterozygous tps2Δ strain PVD191 was tested and the results are presented in Figure 5.

Consider `CC(=O)N1CCN(c2ccc(OCC3COC(Cn4ccnc4)(c4ccc(Cl)cc4Cl)O3)cc2)CC1` (stereo not shown) [ketoconazole], for which the effect on growth entry is on record as “no detectable growth”.

For the origin of these results see patent publication EP1081232A1, “Novel target for antifungals” (K.U. LEUVEN RESEARCH & DEVELOPMENT, priority 1999, dated 2001).
